{"source": "PubChem BioAssay (NCI)", "assay_in_all_cases": "inhibition of tumour cell growth, NCI panel, 48 h", "key": {"786-0 renal": {"test_system": "786-0 renal"}, "BT-549 breast": {"test_system": "BT-549 breast"}, "DLD-1 colon": {"test_system": "DLD-1 colon"}, "DMS 114 small cell lung": {"test_system": "DMS 114 small cell lung"}, "HCC-2998 colon": {"test_system": "HCC-2998 colon"}, "HL-60(TB) leukemia": {"test_system": "HL-60(TB) leukemia"}, "HOP-62 NSCLC": {"test_system": "HOP-62 NSCLC"}, "M14 melanoma": {"test_system": "M14 melanoma"}, "RPMI-8226 leukemia": {"test_system": "RPMI-8226 leukemia"}, "NCI-H522 lung": {"test_system": "NCI-H522 lung"}}, "note": "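Protocol summary: plate cells (96-well), add compound at 5 concentrations, incubate 48 h, interpolate endpoints linearly. GI50: concentration for 50% inhibition of growth. Definition used: TGI = concentration required for complete inhibition of growth.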"}
{"smiles": "CN(C)CC1CCCC1=O", "note": "(centres undefined)", "values": [{"measurement": "TGI", "setting": "786-0 renal", "value": 16, "unit": "µM"}, {"measurement": "TGI", "setting": "BT-549 breast", "value": 13.8, "unit": "µM"}, {"measurement": "TGI", "setting": "DLD-1 colon", "value": 1.03, "unit": "µM"}, {"measurement": "TGI", "setting": "DMS 114 small cell lung", "value": 2.33, "unit": "µM"}, {"measurement": "TGI", "setting": "HCC-2998 colon", "value": 4.44, "unit": "µM"}, {"measurement": "TGI", "setting": "HL-60(TB) leukemia", "value": 0.374, "unit": "µM"}, {"measurement": "TGI", "setting": "HOP-62 NSCLC", "value": 31.3, "unit": "µM"}, {"measurement": "TGI", "setting": "M14 melanoma", "value": 3.46, "unit": "µM"}, {"measurement": "TGI", "setting": "RPMI-8226 leukemia", "value": 1.93, "unit": "µM"}]}
{"smiles": "Cc1ccc(S(=O)OC2C3CC4CC(C3)CC2C4)cc1", "note": "(centres undefined)", "values": [{"measurement": "TGI", "setting": "786-0 renal", "value": "> 100", "unit": "µM"}, {"measurement": "TGI", "setting": "DLD-1 colon", "value": "> 100", "unit": "µM"}, {"measurement": "TGI", "setting": "DMS 114 small cell lung", "value": "> 100", "unit": "µM"}, {"measurement": "TGI", "setting": "HCC-2998 colon", "value": "> 100", "unit": "µM"}, {"measurement": "TGI", "setting": "HL-60(TB) leukemia", "value": "> 100", "unit": "µM"}, {"measurement": "TGI", "setting": "HOP-62 NSCLC", "value": "> 100", "unit": "µM"}, {"measurement": "TGI", "setting": "M14 melanoma", "value": "> 100", "unit": "µM"}, {"measurement": "TGI", "setting": "NCI-H522 lung", "value": "> 100", "unit": "µM"}, {"measurement": "TGI", "setting": "RPMI-8226 leukemia", "value": "> 100", "unit": "µM"}]}
{"smiles": "N#Cc1ccc(N=Cc2c([O-])ccc3ccccc23)cc1.[C-]#[O+].[C-]#[O+].[Ir]", "values": [{"measurement": "GI50", "setting": "786-0 renal", "value": 14.3, "unit": "µM"}, {"measurement": "TGI", "setting": "786-0 renal", "value": 28, "unit": "µM"}, {"measurement": "GI50", "setting": "DLD-1 colon", "value": 1.96, "unit": "µM"}, {"measurement": "TGI", "setting": "DLD-1 colon", "value": 4.09, "unit": "µM"}, {"measurement": "GI50", "setting": "DMS 114 small cell lung", "value": 1.69, "unit": "µM"}, {"measurement": "TGI", "setting": "DMS 114 small cell lung", "value": 3.66, "unit": "µM"}, {"measurement": "GI50", "setting": "HCC-2998 colon", "value": 14.7, "unit": "µM"}, {"measurement": "TGI", "setting": "HCC-2998 colon", "value": 27.8, "unit": "µM"}, {"measurement": "GI50", "setting": "HL-60(TB) leukemia", "value": 1.5, "unit": "µM"}, {"measurement": "TGI", "setting": "HL-60(TB) leukemia", "value": 5.18, "unit": "µM"}, {"measurement": "GI50", "setting": "HOP-62 NSCLC", "value": 20.6, "unit": "µM"}, {"measurement": "TGI", "setting": "HOP-62 NSCLC", "value": 42, "unit": "µM"}, {"measurement": "GI50", "setting": "M14 melanoma", "value": 5.22, "unit": "µM"}, {"measurement": "TGI", "setting": "M14 melanoma", "value": 19, "unit": "µM"}, {"measurement": "GI50", "setting": "NCI-H522 lung", "value": 1.13, "unit": "µM"}, {"measurement": "TGI", "setting": "NCI-H522 lung", "value": 2.45, "unit": "µM"}, {"measurement": "GI50", "setting": "RPMI-8226 leukemia", "value": 5, "unit": "µM"}, {"measurement": "TGI", "setting": "RPMI-8226 leukemia", "value": 25.1, "unit": "µM"}]}
{"smiles": "[N-]=[N+]=C1C(=O)C2CC3CC(C2)CC1C3", "values": [{"measurement": "TGI", "setting": "786-0 renal", "value": "> 100", "unit": "µM"}, {"measurement": "TGI", "setting": "DLD-1 colon", "value": "> 100", "unit": "µM"}, {"measurement": "TGI", "setting": "DMS 114 small cell lung", "value": "> 100", "unit": "µM"}, {"measurement": "TGI", "setting": "HCC-2998 colon", "value": "> 100", "unit": "µM"}, {"measurement": "TGI", "setting": "HL-60(TB) leukemia", "value": "> 100", "unit": "µM"}, {"measurement": "TGI", "setting": "HOP-62 NSCLC", "value": "> 100", "unit": "µM"}, {"measurement": "TGI", "setting": "M14 melanoma", "value": "> 100", "unit": "µM"}, {"measurement": "TGI", "setting": "NCI-H522 lung", "value": "> 100", "unit": "µM"}, {"measurement": "TGI", "setting": "RPMI-8226 leukemia", "value": "> 100", "unit": "µM"}]}
{"smiles": "CCO/C=C1\\N=C(c2ccccc2Br)OC1=O", "values": [{"measurement": "TGI", "setting": "786-0 renal", "value": "> 100", "unit": "µM"}, {"measurement": "TGI", "setting": "DLD-1 colon", "value": "> 100", "unit": "µM"}, {"measurement": "TGI", "setting": "DMS 114 small cell lung", "value": "> 100", "unit": "µM"}, {"measurement": "TGI", "setting": "HCC-2998 colon", "value": "> 100", "unit": "µM"}, {"measurement": "TGI", "setting": "HL-60(TB) leukemia", "value": "> 100", "unit": "µM"}, {"measurement": "TGI", "setting": "HOP-62 NSCLC", "value": "> 100", "unit": "µM"}, {"measurement": "TGI", "setting": "M14 melanoma", "value": "> 100", "unit": "µM"}, {"measurement": "TGI", "setting": "NCI-H522 lung", "value": "> 100", "unit": "µM"}, {"measurement": "TGI", "setting": "RPMI-8226 leukemia", "value": "> 100", "unit": "µM"}]}
